Laboratory results as given in PMC4979471 (Cell Death Discovery, 2015).
Read-outs that look alike come from different tables or passages of the source.

Experiments:
[1] = biological target: T1, MYO3b (Homo sapiens, UniProt Q8WXR4); test: Kinase selectivity, P33-radiolabeled assay; type: biochemical; settings: 10 μM ATP
T1 construct: purchased Reaction Biology Corp
T1 sequence (Q8WXR4 1-1341): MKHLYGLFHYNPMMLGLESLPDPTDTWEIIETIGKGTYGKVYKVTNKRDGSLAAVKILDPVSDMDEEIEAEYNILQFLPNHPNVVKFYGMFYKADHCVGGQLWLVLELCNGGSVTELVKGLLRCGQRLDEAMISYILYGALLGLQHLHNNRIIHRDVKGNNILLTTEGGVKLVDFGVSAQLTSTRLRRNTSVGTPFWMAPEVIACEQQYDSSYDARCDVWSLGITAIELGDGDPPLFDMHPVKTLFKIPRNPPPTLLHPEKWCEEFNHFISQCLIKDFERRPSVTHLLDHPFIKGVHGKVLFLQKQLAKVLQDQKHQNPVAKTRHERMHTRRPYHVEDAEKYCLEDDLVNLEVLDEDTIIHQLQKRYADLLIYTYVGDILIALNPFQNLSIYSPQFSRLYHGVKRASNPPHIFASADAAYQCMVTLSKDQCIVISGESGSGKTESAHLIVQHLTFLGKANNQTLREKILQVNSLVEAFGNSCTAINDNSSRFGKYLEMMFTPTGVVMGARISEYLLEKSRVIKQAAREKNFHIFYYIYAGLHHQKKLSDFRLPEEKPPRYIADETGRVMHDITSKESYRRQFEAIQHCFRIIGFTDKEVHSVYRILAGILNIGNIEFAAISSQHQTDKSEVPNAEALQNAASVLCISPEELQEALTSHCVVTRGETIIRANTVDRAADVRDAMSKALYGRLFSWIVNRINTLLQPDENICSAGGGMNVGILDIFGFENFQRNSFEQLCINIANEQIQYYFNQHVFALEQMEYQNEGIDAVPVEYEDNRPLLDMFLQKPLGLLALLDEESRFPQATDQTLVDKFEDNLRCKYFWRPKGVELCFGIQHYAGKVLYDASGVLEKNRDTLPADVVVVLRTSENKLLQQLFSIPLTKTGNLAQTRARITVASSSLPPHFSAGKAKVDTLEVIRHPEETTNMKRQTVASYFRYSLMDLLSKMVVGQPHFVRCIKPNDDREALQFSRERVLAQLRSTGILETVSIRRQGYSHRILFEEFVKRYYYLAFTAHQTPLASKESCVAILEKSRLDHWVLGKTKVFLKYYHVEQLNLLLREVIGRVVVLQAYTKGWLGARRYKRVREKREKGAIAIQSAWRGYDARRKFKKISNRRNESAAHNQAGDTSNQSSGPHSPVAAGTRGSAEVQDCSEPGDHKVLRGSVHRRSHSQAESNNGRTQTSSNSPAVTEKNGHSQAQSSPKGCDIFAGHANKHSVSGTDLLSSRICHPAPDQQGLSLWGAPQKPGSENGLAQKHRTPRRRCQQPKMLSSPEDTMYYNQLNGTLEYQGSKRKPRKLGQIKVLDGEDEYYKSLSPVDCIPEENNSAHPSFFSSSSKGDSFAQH
How it was run: (§1)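 Activity relative to DMSO controls (%) was measured for compound at 10 μM. Assays ran at 10 μM ATP, in duplicate.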

[2] = biological target: T2, PHKg2 (Homo sapiens, UniProt P15735); test: Kinase selectivity, P33-radiolabeled assay; type: biochemical; settings: 10 μM ATP
T2 construct: purchased Reaction Biology Corp
T2 sequence (P15735 1-406): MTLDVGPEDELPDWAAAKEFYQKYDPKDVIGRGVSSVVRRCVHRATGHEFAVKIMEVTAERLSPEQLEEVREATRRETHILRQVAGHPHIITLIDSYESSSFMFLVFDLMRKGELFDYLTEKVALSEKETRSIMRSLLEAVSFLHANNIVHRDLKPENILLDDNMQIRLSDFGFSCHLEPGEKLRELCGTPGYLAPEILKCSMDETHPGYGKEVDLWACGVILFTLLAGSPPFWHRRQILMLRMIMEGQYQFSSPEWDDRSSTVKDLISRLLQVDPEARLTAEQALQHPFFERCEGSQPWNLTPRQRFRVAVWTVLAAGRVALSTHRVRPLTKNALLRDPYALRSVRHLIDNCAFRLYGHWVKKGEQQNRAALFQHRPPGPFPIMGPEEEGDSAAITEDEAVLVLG
How it was run: as §1

[3] = read-out: % Enzyme Activity (relative to DMSO controls) AVG
[4] = read-out: % Enzyme Activity (relative to DMSO controls) Data 1
[5] = read-out: % Enzyme Activity (relative to DMSO controls) Data 2

CC(C)(C)C(=O)N1N=CC[C@H]1c1ccccc1 [GSK′963]
remaining activity at 10 µM [1, 3]: 111% | remaining activity at 10 µM [1, 4]: 111% | remaining activity at 10 µM [1, 5]: 111% | remaining activity at 10 µM [2, 3]: 110% | remaining activity at 10 µM [2, 4]: 111% | remaining activity at 10 µM [2, 5]: 110%
